In ChEMBL document CHEMBL1135600, “Novel tricyclic-alpha-alkyloxyphenylpropionic acids: dual PPARalpha/gamma agonists with hypolipidemic and antidiabetic activity” (J Med Chem, 2002):
Values joined by “and” are separate entries in the source; they are usually repeats but may differ in a detail not shown here. Equal entries are not always repeated. Values belong to the compound of their own block, whether it stands above or below them. Active and inactive are the calls of the source. No cut-off for these calls is given here.

Columns and labels:
[1] = biological target: T1, Peroxisome proliferator-activated receptor gamma (Homo sapiens, UniProt P37231)
T1 sequence (P37231 whole entry): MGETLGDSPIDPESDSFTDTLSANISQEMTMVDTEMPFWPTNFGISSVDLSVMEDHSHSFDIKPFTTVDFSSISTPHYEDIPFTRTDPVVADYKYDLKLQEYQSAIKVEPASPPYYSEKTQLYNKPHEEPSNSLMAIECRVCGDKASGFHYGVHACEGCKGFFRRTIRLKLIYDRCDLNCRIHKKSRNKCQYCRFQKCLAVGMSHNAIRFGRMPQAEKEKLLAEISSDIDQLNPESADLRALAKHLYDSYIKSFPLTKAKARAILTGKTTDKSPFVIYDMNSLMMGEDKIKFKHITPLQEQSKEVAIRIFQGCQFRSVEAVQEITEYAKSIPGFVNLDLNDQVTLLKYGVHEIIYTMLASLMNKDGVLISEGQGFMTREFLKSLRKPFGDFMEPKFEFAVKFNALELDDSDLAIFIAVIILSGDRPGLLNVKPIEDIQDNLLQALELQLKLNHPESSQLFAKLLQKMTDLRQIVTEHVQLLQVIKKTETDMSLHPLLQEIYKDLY
Description: In vitro transactivation using receptor transactivation assay against hPPAR gamma

[2] = biological target: T2, Peroxisome proliferator-activated receptor alpha (Homo sapiens, UniProt Q07869); test: In vitro transactivation using receptor transactivation assay against hPPAR alpha; format: functional
T2 sequence (Q07869 whole entry): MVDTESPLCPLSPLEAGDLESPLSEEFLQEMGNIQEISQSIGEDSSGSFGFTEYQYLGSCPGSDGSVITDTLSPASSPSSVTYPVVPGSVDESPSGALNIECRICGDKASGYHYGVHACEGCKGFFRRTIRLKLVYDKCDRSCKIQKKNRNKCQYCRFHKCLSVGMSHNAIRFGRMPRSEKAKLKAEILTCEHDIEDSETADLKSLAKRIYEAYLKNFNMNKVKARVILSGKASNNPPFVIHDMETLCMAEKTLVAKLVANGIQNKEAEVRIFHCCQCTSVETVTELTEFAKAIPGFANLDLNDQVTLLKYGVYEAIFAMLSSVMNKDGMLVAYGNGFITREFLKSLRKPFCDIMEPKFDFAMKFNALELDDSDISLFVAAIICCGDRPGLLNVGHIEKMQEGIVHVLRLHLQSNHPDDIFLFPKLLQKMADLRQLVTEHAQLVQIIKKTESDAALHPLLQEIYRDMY

[3] = Oral bioavailability; format: ADME, organism-based; conditions: eutheria, in vivo
Mus musculus [4] = organism: Mus musculus; test: Nonfasting triglycerides after 7 days treatment in male db/db mice; format: functional; conditions: 168 h
Mus musculus [5] = organism: Mus musculus; test: Nonfasting blood glucose after 7 days treatment in male db/db mice; format: functional; conditions: 168 h
Mus musculus [6] = organism: Mus musculus; test: Nonfasting insulin after 7 days treatment in male db/db mice; format: functional; conditions: 168 h
[7] = Clearance after oral administration; format: ADME, organism-based; conditions: in vivo
Mus musculus [8] = organism: Mus musculus; test: Maximum achieved insulin reduction relative to vehicle treated control group; format: functional
[9] = Maximum plasma concentration after oral administration at a dose 2.2 mg/kg; format: ADME, organism-based; parameters: dose 2.2 mg/kg, route oral
[10] = Area under blood glucose time curve after OGTT on the 9th day of treatment; format: ADME, tissue-based
Mus musculus [11] = organism: Mus musculus; test: Maximum achieved triglycerides reduction relative to vehicle treated control group; format: functional
[12] = Oral half life was reported; format: ADME, organism-based; conditions: in vivo
[13] = Area under plasma concentration time curve after oral administration at a dose 2.2 mg/kg; format: ADME, organism-based; parameters: dose 2.2 mg/kg, route oral; conditions: in vivo
Mus musculus [14] = organism: Mus musculus; test: (§1) Maximum achieved blood glucose reduction relative to vehicle treated control group; format: functional
Mus musculus [15] = organism: Mus musculus; test: as §1; format: functional; remark: listed apart in the source
Mus musculus [16] = organism: Mus musculus; test: Minimum concentration which produces the desired nonfasting blood glucose levels after 7 days in 50% of the treated mice.; format: functional; conditions: 168 h
Mus musculus [17] = organism: Mus musculus; test: Minimum concentration which produces the desired nonfasting triglyceride levels after 7 days in 50% of the treated male db/db mice.; format: functional; conditions: 168 h
[18] = Oral bioavailability in rat; format: ADME, organism-based; conditions: in vivo
[19] = Clearance after oral administration in rat; format: ADME, organism-based; conditions: in vivo
[20] = Maximum plasma concentration after oral administration at a dose 2.2 mg/kg in rat; format: ADME, organism-based; parameters: dose 2.2 mg/kg, route oral
Mus musculus [21] = organism: Mus musculus; test: Maximum achieved insulin reduction relative to vehicle treated control group; NE is Not Effective.; format: functional, organism-based
[22] = Volume of distribution during steady state in rat; format: ADME, organism-based; conditions: in vivo, read-out: Vss

Compound: CCO[C@@H](Cc1ccc(OCCN2c3ccccc3Oc3ccccc32)cc1)C(=O)O [RAGAGLITAZAR]
- EC50 [1]: 0.57 µM
- EC50 [2]: 3.21 µM

Compound: CCOC(Cc1ccc(OCCCN2c3ccccc3CCc3ccccc32)cc1)C(=O)O (stereo not drawn)
- EC50 [1]: 0.76 µM

Compound: CCc1ccc(CCOc2ccc(CC3SC(=O)NC3=O)cc2)nc1 (stereo not drawn) [PIOGLITAZONE]
- bioavailability [3]: 112%
- ED50 (Mus musculus [4]): 26.7 mg/kg
- ED50 (Mus musculus [5]): 2.62 mg/kg
- ED50 (Mus musculus [6]): 15.1 mg/kg
- CL/F [7]: 1.4 mL/min/kg
- Max reduction (Mus musculus [8]): 54%
- Cmax [9]: 4660 ng/mL
- AUC ED50 [10]: 12.09 mg/kg
- Max reduction (Mus musculus [11]): 21%
- Vd (in vivo): 0.22 L/kg
- half-life [12]: 3.8 h
- AUC [13]: 29200 ng·h/mL
- Max reduction (Mus musculus [14]): 53%
- Max reduction (Mus musculus [15]): 39%

Compound: CCO[C@@H](Cc1ccc(OCCn2c3ccc(Br)cc3c3cc(Br)ccc32)cc1)C(=O)O
- EC50 [1]: 0.044 µM
- EC50 [2]: 0.22 µM

Compound: CCOC(Cc1ccc(OCCC2c3ccccc3-c3ccccc32)cc1)C(=O)O (stereo not drawn)
- EC50 [1]: 0.49 µM
- EC50 [2]: 11.7 µM

Compound: CCOC(Cc1ccc(OCCCN2c3ccccc3OCOc3ccccc32)cc1)C(=O)O (stereo not drawn)
- ED50 (Mus musculus [16]): 8.11 mg/kg
- ED50 (Mus musculus [17]): 18.3 mg/kg
- bioavailability [18]: 63%
- CL/F [19]: 13.7 mL/min/kg
- Cmax [20]: 730 ng/mL
- EC50 [1]: 1.2 µM
- AUC ED50 [10]: 6.57 mg/kg
- Max reduction (Mus musculus [11]): 13%
- EC50 [2]: 1.2 µM
- NE (Mus musculus [21]): inactive
- Vd [22]: 0.76 L/kg
- Max reduction (Mus musculus [14]): 17% and 20%

More lines, now with the values ahead:

- EC50 [1]: 12.1 µM
- EC50 [2]: 12.5 µM
Compound: CCOC(Cc1ccc(OCC=C2c3ccccc3-c3ccccc32)cc1)C(=O)O (stereo not drawn)

- EC50 [1]: 12.6 µM
Compound: CCOC(Cc1ccc(OCC=C2c3ccccc3CCc3ccccc32)cc1)C(=O)O (stereo not drawn)

- EC50 [1]: 1.7 µM
Compound: CCOC(Cc1ccc(OCCN(C)C2c3ccccc3CCc3ccccc32)cc1)C(=O)O (stereo not drawn)

- EC50 [1]: 9.8 µM
- EC50 [2]: 7.5 µM
Compound: CCOC(Cc1ccc(OCCNC2=Nc3ccccc3Sc3ccccc32)cc1)C(=O)O (stereo not drawn)

- EC50 [1]: 12.4 µM
- EC50 [2]: 12.4 µM
Compound: CCOC(Cc1ccc(OCC/C=C2/c3ccccc3COc3ccccc32)cc1)C(=O)O (stereo not drawn)

- EC50 [1]: 0.091 µM
- EC50 [2]: 0.67 µM
Compound: CCOC(Cc1ccc(OCCn2c3ccccc3c3ccncc32)cc1)C(=O)O (stereo not drawn)
